Results from patent US20250333699A1, “METHOD FOR PREPARATION OF CYTOTOXIC T LYMPHOCYTES WITH BROAD TUMOUR-SPECIFIC REACTIVITY AND CHARACTERISTICS OF EARLY DIFFERENTIATION CELLS” (priority 2021, published 2025).

Tested on: MAGE antigens
Experiment: Expression of MAGE antigens by RT-PCR (Q-PCR) in CD3/CD28-activated lymphocytes
Type: cell-based, human
Settings: 10 μM for 2 days in the presence of IL-2 (150 IU/ml); FIG. 3
Procedure: Expression of MAGE antigens was determined as follows. The frozen pellets of cells were thawed, and total RNA was isolated from lymphocytes using the NucleoSpin RNA Plus kit (Macherey-Nagel), and reverse transcribed using SuperScript™ IV VILO™ Master Mix with ezDNase™ Enzyme (Invitrogen) and random hexamers and oligo(dT24) primers. cDNA was amplified in a LightCycler Nano (Roche) using the FastStart Essential DNA Green Master mix (Roche) and previously described primers and conditions (Weinert et al., 2009), except primers for MAGE-A4, provided by RealTimePrimers.com. The data were normalized to GAPDH expression.
The cell suspension was transferred to a 50 ml tube, and the cell concentration was determined. At this stage the culture contains only activated lymphocytes, and upon counting in a Moxi cell counter appear as a single peak of cells with an average size of 10-11 μm. 2×10^7 cells (or all cells) were set for centrifugation. […]
5-Aza-CdR-treated cultures were harvested and centrifuged. […] After this, cells were counted, and 10×10^6 cells were mixed with 10×10^6 thawed lymphocytes, and after centrifugation, resuspended in 20 ml of lymphocyte medium and transferred to a T75 tissue culture flask, side position. […]

**Q.** Which “expression of selected CT antigens of the MAGE family” value does the source give for `Nc1ncn([C@H]2C[C@H](O)[C@@H](CO)O2)c(=O)n1` [5-aza-CdR, 5-aza-2′-deoxycytidine] here?
**A.** The value was “Robust and consistent expression”.
